The subject of test [1] is Arabidopsis thaliana plants. Put plainly: Screening of library of transformed plants expressing candidate BARPs for new phenotypes. It is filed as in vivo. As to conditions: for new phenotype associated with the BARP: plant of the library from which the BARP sequence was isolated; for phenotype: transgenic Arabidopsis thaliana expressing the BARP, scored from emergence to senescence. The text has this: In the present example, the methods of the present disclosure were used to generate a library of test nucleic acids encoding a plurality of candidate BARPs, each having a core 6 amino acid random peptide sequence flanked by two cysteine residues. The sequences were also flanked by start and stop codons and Gateway® sequences, such as illustrated in FIG. 1. PCR was used with primers corresponding to the known Gateway flanking sequences to generate the test nucleic acid library. The oligonucleotides were then cloned into bacterial vectors including genes for kanamycin resistance to create a recombination vector library. The vectors were then moved to Agrobacterium tumefaciens strain […] and used to transform Arabidopsis thaliana plants. Seeds were collected from the transformed plants and used to grow new plants. These plants were observed from seedling through the plant lifecycle and observed for new phenotypes. Several new phenotypes emerged, DNA was extracted from the plants displaying new phenotypes, and the sequence of the candidate BARP from the plants was determined. The procedures and results are described in detail below.
The test nucleic acid sequences were synthesized using conserved initiator and terminator sequences flanking 18 random nucleotides, which provides a peptide that is ten amino acids long, with six of the core amino acids randomized, following a Met-Ala-Cys and ending with a Cys-term. This template is illustrated in FIG. 1. In the present example, the corresponding nucleic acid sequence was […] (SEQ ID NO: 5; nucleotides 14-46 of SEQ ID NO: 1). The cysteine residues in this case provide potential for formation of disulfide bonds that may impart additional structure to the adjacent amino acid loop. Although in this example 18 random nucleotides (identified as “N” in SEQ ID NOs: 1 and 5) were used, any number may be used, as long as it is a multiple of three.
To construct the library of random-core BARP sequences, the above DNA sequence was synthesized as an oligonucleotide sequence, along with flanking sequences corresponding to the Gateway® recombination sequences. The middle portion of the sequence, represented by “N” in FIG. 1, were randomized nucleotides. Known synthesis techniques were used to build the sequences, resulting in a library of PCR products containing test nucleic acid sequences (start codon, spacer codon, cysteine codon, 18 random nucleotides encoding a core candidate BARP sequence, second cysteine codon, and stop codon) flanked by Gateway recombination sequences. Although Gateway® sequences were used in the present examples, other recombination cloning primer sequences could be used or specifically designed.
The library of PCR products containing random test sequences was amplified using PCR based on flanking primers containing Gateway recombination sequences. These reactions produced a population of PCR products each containing the core peptide test sequence flanked by Gateway recombination sequences. These PCR products were introduced to the vector pDONR222 using Gateway recombination, and then transformed into E. coli genotype DH5α. The transformation vector also included the NPTII gene for kanamycin resistance. The E. coli cells were plated on kanamycin plates at low density to obtain single-colony separation. The single colonies each contained a separate plasmid bearing a random peptide sequence.
The colonies were recovered from plates in liquid medium, and the plasmids were isolated. The isolated plasmids represented a library of many independent, random sequences (encoding candidate BARPs) flanked by ‘start’ and ‘stop’ sequences. […]

Test [2] concerns Arabidopsis plants. Put plainly: Plant growth and phenotyping of PEP6 / PEP12 transgenic plants. The class given is in vivo, Arabidopsis thaliana. The following applies: transgenic plant in soil; normal-sized plants 25 mm to 30 mm. An excerpt:
Two libraries encoding six- and twelve-random amino acid cyclized peptides (denoted PEP6 and PEP12, respectively) were constructed in binary vectors (as illustrated in FIG. 9) using a Gateway cloning strategy and transformed into Arabidopsis. More than 1,500 transgenic plants with the PEP6 T-DNA inserts were isolated and more than 600 transgenic plants were isolated carrying the PEP12 insert, representing a survival ratio of 1.8% and 1.2% respectively under kanamycin selection. To ensure library representation in the population, DNA was prepared from at least fifty transgenic plants, including ten that had small rosette diameter (5 mm to 10 mm) (e.g., those having BARP sequences SEQ ID NO: 14, 16, 6, 19, 21, 23, 26, 28, 30, and 32) compared to normal-sized plants (25 mm to 30 mm; see Table 2). The nucleotide sequences of all amplified random peptide open reading frames (rpORFs) were different, indicating representation of library diversity was maintained throughout the cloning and transformation process. Several phenotypes were visually apparent. […] Some plants showing multiple growth defects were recorded in each phenotype. Bolting plants with multiple inflorescences were transformed with the PEP6 or PEP12 destination library through the floral dipping method (Clough and Bent, 1998, incorporated herein by reference). For selection, seeds were surface sterilized by 70% ethanol for 5 min and 10% bleach for 20 min. Surface-sterilized seeds were plated on ½× MS basal medium with 0.5% Phyto Agar (cat. # M10200 and # A20300, Research Products International) and 50 μg/ml kanamycin for selection. Transgenic seedlings were identified by GFP expression or resistance to kanamycin. Transformed seedlings were grown to the 3-5 true leaf stage on plates and transferred to soil. DNA was extracted from each seedling (Edwards et al., 1991 incorporated herein by reference) for inserted nucleotide sequence identification. An approximately 500 bp DNA fragment containing the random peptide ORF and part of pK7WG2D vector sequence was amplified using primers PEP-F and PEP-R (SEQ ID NOs: 35 and 36, respectively) listed in Table 4 and sequenced. Arabidopsis plants were grown in soil at 20° C. under 16 hour light/8 hour dark conditions. The characterization of phenotypic variations was based on the comparison among seedlings grown in the same pot or flat.

Test [3] concerns Arabidopsis thaliana plants. The test can be described thus: Independent replication of peptide-induced phenotypes in independent transformant lines. It is filed as in vivo. As to conditions: BARP sequence re-introduced into Arabidopsis thaliana. As for the experimental part: A number of first-transformed generation plants were prepared and phenotypes were observed using the methods described in Example 1, above. In this example some 12-amino-acid-long candidate BARPs were also synthesized and tested. The procedures were the same as for the 6-aa BARPs described in Example 1. These phenotypes were also observed to be stable and inherited in subsequent generations. To verify that the effects observed are due to the expressed peptide and not to other less-likely positional/insertional causes, in this Example, a substantial number of the of the candidate 6 and 12 amino-acid-long BARPs were sequenced and separately transformed into independent plants. […] One microliter was used in a PCR reaction under standard conditions, and using primers corresponding to the attachment (recombinational cloning sequences) of the Gateway vector, the corresponding BARP sequences was amplified. This sequences were then recombined into the pDONR222 vector and then re-ligated into the binary pKWDG2 over-expression vector as described above. This sequence was then re-introduced into Arabidopsis thaliana plants using the floral dipping strategy and selection as noted above. The seedlings were then analyzed for the phenotype as defined by the original transformant. Recapitulation of the phenotype in multiple, independent transformation events provided high evidence of a specific physiological effect of the peptide.

For “MACDFLADLC (chemically synthesized peptide sequence of BARP associated with bushy seedling phenotype) [SEQ ID NO: 3]”, the “new phenotype associated with the BARP” value in test [1] was ““bushy” seedling with small and upright leaves”.

On to “MACGGGCSAC (chemically synthesized peptide sequence of BARP PEP6-46) [PEPB-46]”, for which the rosette size in test [2] is on record as 10 mm.

Take “MACGKGSGLC (chemically synthesized peptide sequence of BARP associated with purple pigment accumulation in seed pods) [SEQ ID NO: 2]”: the “new phenotype associated with the BARP” value in test [1] is “hyperaccumulation of purple pigments in seed pods”.

Consider “MACKQAXQRC (chemically synthesized peptide sequence of BARP CBF6AA-85 associated with large, flat leaves and small petioles) [BARP; “X” represents a stop codon]”, for which the “phenotype in independent transformant lines” value in test [3] is on record as “large, flat leaves with small petioles”. Further, the phenotype result in test [1] was “tiny, curly leaves”.

The sequence “MACNCSSDGC (chemically synthesized peptide sequence of BARP PEP6-27)” gave a rosette size in test [2] of 8 mm.

Sequence “MACPNACFSC (chemically synthesized peptide sequence of BARP PEP6-33)” registered a rosette size in test [2] of 9 mm.

In test [2], “MACQELTMWC (chemically synthesized peptide sequence of BARP PEP6-30)” displayed a rosette size of 10 mm.

For the sequence “MACQLMWREC (chemically synthesized peptide sequence of BARP PEP6-28)”, the rosette size in test [2] stood at 8 mm.

“MACQQMLSGC (chemically synthesized peptide sequence of BARP PEP6-37)” returned a rosette size in test [2] of 8 mm.

On to “MACSAHCSDC (chemically synthesized peptide sequence of BARP associated with abberrant seedling characteristics) [SEQ ID NO: 4, BARP associated with strange seedling characteristics]”, for which the “new phenotype associated with the BARP” value in test [1] is “aberrant seedling characteristics”.

The sequence “MACSDVSVIC (chemically synthesized peptide sequence of BARP PEP6-38)” came in with a rosette size in test [2] of 8 mm.

With “MACWMSRMEC (chemically synthesized peptide sequence of BARP PEP6-12)”, in test [2], the rosette size is given as 5 mm.

For “MACWTSSVLC (chemically synthesized peptide sequence of BARP CBF6AA-110 associated with large, flat leaves and small petioles)”, the “phenotype in independent transformant lines” value in test [3] is “large, flat leaves with small petioles”. Besides, the phenotype result in test [1] is recorded as “tiny”.

“MGCVCIEPYQRLRAKC (chemically synthesized peptide sequence of BARP 12AA-97 associated with arrested plant growth)”: the “phenotype in independent transformant lines” value in test [3] was “arrested plant growth”. Also, the phenotype result in test [1] is reported as “died late”.

Source of the values: patent US10801023B2, “Methods of identifying biologically active random peptides in plants and libraries of plants expressing candidate biologically active random peptides” (University of Florida Research Foundation, Inc., priority 2015, dated 2020).
